Assays:
[1] = background; cited from earlier work
Viscosity of the solvent = format: physicochemical; conditions: 100° F; Table 2
Color of the solvent = format: physicochemical; conditions: Table 2, solvent
[2] = Acute toxicity (LD50, per oral and cutaneous); format: in vivo, Strain ICR-JCL Mice; conditions: ICR-JCL mice
From the text: Used as test animal are Strain ICR-JCL Mice (Nippon Clea Co., Ltd.)

| Viscosity (Viscosity of the solvent) [cst] | Compound | accumulation in the bodies of many animals [1] | Color (Color of the solvent) | LD50 Cutaneous [2] [mL/kg] | LD50 Per Oral [2] [mL/kg] | biodegradability [1] |
| --- | --- | --- | --- | --- | --- | --- |
| – | ClC1C(Cl)C(Cl)C(Cl)C(Cl)C1Cl (centres unmarked) [BHC] | accumulates | – | – | – | – |
| – | Clc1ccc(C(c2ccc(Cl)cc2)C(Cl)(Cl)Cl)cc1 [DDT] | accumulates | – | – | – | – |
| 3.6 | diethylnaphthalene [Diethyl-] | – | None | – | – | – |
| 5.1 | dimethylpropylnaphthalene [Dimethyl propyl] | – | None | – | – | – |
| 5.2 | ethylpropylnaphthalene [Ethyl propyl] | – | None | – | – | – |
| 5.0 | methylbutylnaphthalene [Methyl Butyl] | – | None | – | – | – |
| – | polychlorobiphenyl [PCB, reference compound] | accumulates | None | 1.25 | 1.7 | low biodegradability |

| Compound | Viscosity (Viscosity of the solvent) [cst] | accumulation in the bodies of many animals [1] | Color (Color of the solvent) | LD50 Cutaneous [2] [mL/kg] | LD50 Per Oral [2] [mL/kg] | biodegradability [1] |
| --- | --- | --- | --- | --- | --- | --- |
| butylnaphthalene [Butyl-naphthalene] | 4.2 | – | None | – | – | – |
| dipropylnaphthalene | 8.5 | – | None | ≥ 30 | 9.5 | – |
| methylpropylnaphthalene [Methyl propyl] | 4.0 | – | None | – | – | – |

From patent US4003589A, “Carbonless copying paper” (Kureha Kagaku Kogyo Kabushiki Kaisha, priority 1970, dated 1977)
